This is an account of results in ChEMBL document CHEMBL3272351, “[1-(L-2-hydroxy-3-mercaptopropanoic acid)] analogues of arginine-vasopressin, [8-D-arginine]vasopressin, and [4-valine,8-D-arginine]vasopressin” (J Med Chem, 1977).

Positions of bridges follow the written chain, without caps; N, C: chain ends. Non-standard residues stand in square brackets, D forms with d. Residues, ends and D or L forms follow the SMILES beside them. Mpa = O=C(O)CCS

The nature of series [1]: Oxytocic activity in rat uterus in absence of Mg2+. The class given is functional.
For series [2], the species on record is Rattus norvegicus. The experiment in a line: Ratio of antidiuretic activity in rat to vasopressor activity in rat. The arrangement: species or system Urine.
The species entered for series [3] is Rattus norvegicus. Put plainly: Vasopressor activity in rat. In kind it is organism-based. To be noted: in vivo.
Series [4] can be described thus: Oxytocic activity in rat uterus in presence of Mg2+. The class given is functional.
For series [5], the system named is Rattus norvegicus. The experiment in a line: Antidiuretic activity in iv dosed rat. The class given is functional, Urine.
A short description of series [6]: Retardation factor of the compound in butan-1-ol-acetic acid-water (4:1:5 v/v) by TLC analysis. The conditions noted are these: buffer. In kind it is physicochemical.
Series [7] is described as follows: Retardation factor of the compound in butan-1-ol-water (1:1 v/v) by TLC analysis. In kind it is physicochemical. The conditions noted are these: buffer.
Series [8] is described as follows: Retardation factor of the compound in ethyl acetate-pyridine-acetic acid-water (5:5:1:3 v/v) by TLC analysis. The conditions noted are these: buffer. The class given is physicochemical.
Series [9] has as its system Rattus norvegicus. The experiment in a line: Antidiuretic activity in sc dosed Brattleboro rat assessed as spontaneous urine output measured every 1 hr for 24 hrs. In kind it is functional.
For series [10], the species on record is Rattus norvegicus. Put plainly: Ratio of antidiuretic activity in Brattleboro rat to vasopressor activity in rat. On the set-up: species or system Urine.

`NC(=O)CC[C@@H]1NC(=O)[C@H](Cc2ccccc2)NC(=O)[C@H](Cc2ccc(O)cc2)NC(=O)[C@@H](O)CSSC[C@@H](C(=O)N2CCC[C@H]2C(=O)N[C@@H](CCCN=C(N)N)C(=O)NCC(N)=O)NC(=O)[C@H](CC(N)=O)NC1=O`: the Activity in series [1] turned out to be 31 U/mg; in series [3], 549 U/mg; in series [4], 96 U/mg; in series [5] it was 467 U/mg. Moreover, the Ratio in series [2] was 0.9. Further, the Rf in [6] was 0.45; in series [7], 0.22; in series [8], 0.68.

`NC(=O)CC[C@@H]1NC(=O)[C@H](Cc2ccccc2)NC(=O)[C@H](Cc2ccc(O)cc2)NC(=O)[C@@H](O)CSSC[C@@H](C(=O)N2CCC[C@H]2C(=O)N[C@H](CCCN=C(N)N)C(=O)NCC(N)=O)NC(=O)[C@H](CC(N)=O)NC1=O`: the Activity in series [1] came to 4.3 U/mg; in [3], 0.86 U/mg; in series [4] it was 2.6 U/mg; in [5] it was 886 U/mg. Besides, the Ratio in series [2] stood at 1030. In addition, the Rf in series [6] is given as 0.45; in series [7], 0.22; in [8], 0.68.

As for `CC(C)[C@@H]1NC(=O)[C@H](Cc2ccccc2)NC(=O)[C@H](Cc2ccc(O)cc2)NC(=O)[C@@H](O)CSSC[C@@H](C(=O)N2CCC[C@H]2C(=O)N[C@H](CCCN=C(N)N)C(=O)NCC(N)=O)NC(=O)[C@H](CC(N)=O)NC1=O`, the Activity was 1.1 U/mg in [1], less than 0.02 U/mg in series [3], 2.8 U/mg in series [4] and 892 U/mg in series [5]. Further, in series [2], the Ratio was more than 45000. The Rf is reported as 0.68 in series [6], 0.48 in series [7] and 0.85 in series [8].

Consider `CC(C)[C@@H]1NC(=O)[C@H](Cc2ccccc2)NC(=O)[C@H](Cc2ccc(O)cc2)NC(=O)[C@@H](N)CSSC[C@@H](C(=O)N2CCC[C@H]2C(=O)N[C@H](CCCN=C(N)N)C(=O)NCC(N)=O)NC(=O)[C@H](CC(N)=O)NC1=O`, for which the Activity in series [1] is recorded as 0.6 U/mg; in [3], 0.037 U/mg; in series [4], 0.9 U/mg; in series [5], 653 U/mg. Besides, in series [2], the Ratio worked out at 17650.

Turning to `CC(C)[C@@H]1NC(=O)[C@H](Cc2ccccc2)NC(=O)[C@H](Cc2ccc(O)cc2)NC(=O)CCSSC[C@@H](C(=O)N2CCC[C@H]2C(=O)N[C@H](CCCNC(=N)N)C(=O)NCC(N)=O)NC(=O)[C@H](CC(N)=O)NC1=O` ([Mpa]YFVNCP[dR]G-NH2; disulfide 1-6), the Activity was 8 U/mg in series [1], 1230 U/mg in series [9], less than 0.01 U/mg in series [3] and 2 U/mg in [4]. Moreover, the Ratio in series [10] was more than 123000.

On to `N=C(N)NCCC[C@H](NC(=O)[C@@H]1CCCN1C(=O)[C@@H]1CSSCCC(=O)N[C@@H](Cc2ccc(O)cc2)C(=O)N[C@@H](Cc2ccccc2)C(=O)N[C@@H](CCC(N)=O)C(=O)N[C@@H](CC(N)=O)C(=O)N1)C(=O)NCC(N)=O` [DESMOPRESSIN], for which the values for the Activity in [1] and in series [4] were 54 U/mg and 167 U/mg, respectively.

`NC(=O)CC[C@@H]1NC(=O)[C@H](Cc2ccccc2)NC(=O)[C@H](Cc2ccc(O)cc2)NC(=O)[C@@H](N)CSSC[C@@H](C(=O)N2CCC[C@H]2C(=O)N[C@@H](CCCN=C(N)N)C(=O)NCC(N)=O)NC(=O)[C@H](CC(N)=O)NC1=O` [VASOPRESSIN]: the Activity in [1] was determined as 16 U/mg; in [9], 330 U/mg; in series [3] it was 382 U/mg; in [4] it was 57 U/mg. Moreover, the Ratio in [10] is recorded as 0.9.
